From patent US20100266501A1, “METHODS AND COMPOSITIONS FOR ORGAN PROTECTION” (University Of Vermont and State Agricltural College, priority 2006, published 2010)
Read-outs that look alike come from different tables or passages of the source.

Experiments:
[1] = tested on: pig model of myocardial ischemia and reperfusion; assay: Ischemia-reperfusion model: infarct morphology (circumference/area index); type: in vivo; settings: for morphologic appearance of the infarcted area: TTC stained sections
Text: (§1) Sedation, anesthesia and instrumentation of the pigs were accomplished in accordance to the dose escalation study. All pigs received a bolus of 2000 units of heparin sulfate after obtaining femoral artery access. A guide wire (PT2, 0.014″×185 cm, Boston Scientific, Natick, Mass.) was then advanced into the left anterior descending (LAD) coronary artery followed by inflation of a balloon (Monorail Maverick, 2.5×15 mm, Boston Scientific) in its mid-portion, just distal to the second diagonal branch. Total occlusion was confirmed by contrast injections after increasing balloon pressures in 1 atm increments. Total occlusion time was 60 minutes. Throughout the experiment, the animals were monitored by continuous digital ECG recordings and guide catheter pressure recordings. Digital cineangiograpic recordings were obtained in straight anterioposterior projections. In order to quantify visual differences in infarct morphology, a circumference/area index of the infarcted myocardium using TTC stained sections was calculated.

[2] = Intracoronary NAC dose escalation: ECG (QT interval, arrhythmias, heart rate)
Description: Accordingly, the effects of escalating doses of intracoronary NAC (Cumberland Pharmaceuticals, Nashville, Tenn.) mixed with contrast medium on blood pressure and cardiac rhythm were tested in two healthy farm raised pigs (23 and 26 kg).
The pigs were anesthetized with Isoflurane after intramuscular pre-medication with Ketamine (20 mg/kg). After endotracheal intubation they were ventilated (Harvard Apparatus, Holliston, Mass.) with a mixture of oxygen and 1-3 percent isoflurane. A surgical level of anesthesia was confirmed prior to obtaining percutaneous femoral arterial access using a 6-French sheath. A JR 4 or HS guide catheter was inserted and placed at the ostium of the left main coronary artery. Continuous twelve-lead ECG and catheter based pressures were digitally recorded with the administration of bolus injections of NAC. The initial dose was 56.6 mg of NAC diluted in 5 mL of. Iopamidol (Isovue 370®, Bracco Pharmaceuticals, Princeton, N.J.). This dose of 11.3 mg NAC/mL is referred to as the target dose because it would deliver a dose of 1850 milligrams of NAC to an average patient undergoing a percutaneous coronary intervention. […] Following at least five injections of the target dose, a total of four high dose injections were performed, two of 250 mg per 5 mL bolus and two of 500 mg NAC per 5 mL bolus (equal to 4.4× and 8.8× target dose). […] Blood pressure and QT interval were analyzed at the end of three succeeding respiratory cycles (6, 12 and 18 seconds after injection) and are reported as a mean percent change from baseline.
In the dose escalation study the effect of each injection on blood pressure and QT interval was expressed as a percentage change from the immediately preceding baseline and analyzed by a paired student's t-test. A p-value of less than 0.05 was accepted as statistically significant.

[3] = Ischemia-reperfusion model: serum creatinine; type: in vivo, pig; settings: for baseline creatinine level / creatinine level: serum, mean±SD; for baseline creatinine level: prior to contrast medium administration; for creatinine level: twenty four hours after ischemia-reperfusion, 200 ml contrast
Text: Sedation, anesthesia and instrumentation of the pigs were accomplished in accordance to the dose escalation study. All pigs received a bolus of 2000 units of heparin sulfate after obtaining femoral artery access. A guide wire (PT2, 0.014″×185 cm, Boston Scientific, Natick, Mass.) was then advanced into the left anterior descending (LAD) coronary artery followed by inflation of a balloon (Monorail Maverick, 2.5×15 mm, Boston Scientific) in its mid-portion, just distal to the second diagonal branch. Total occlusion was confirmed by contrast injections after increasing balloon pressures in 1 atm increments. […] Throughout the experiment, the animals were monitored by continuous digital ECG recordings and guide catheter pressure recordings. Digital cineangiograpic recordings were obtained in straight anterioposterior projections. A total of 200 ml of contrast medium was administered to each animal. Approximately half of the contrast volume was used during diagnostic angiography and insertion of the guidewire into the LAD. The remaining contrast was injected after deflation of the balloon during the reperfusion period. After 20-30 minutes of reperfusion, catheter, balloon and guide wire were withdrawn. An Angio-Seal 6-French femoral artery closure device (St. Jude Medical, St. Paul, Minn.) was deployed and the Isoflurane was discontinued. After 30 minutes the ECG recording was stopped and the animals were extubated and transferred to the animal housing facility. No animal was lost during the housing period. Serum was collected prior to contrast exposure and 24 hours after infarction and analyzed for creatinine. An attempt was also made to assay Cystatin C as a second renal marker. However, Cystatin C was undetectable in pig serum.

[4] = tested on: pig model of myocardial ischemia and reperfusion; assay: Ischemia-reperfusion model: area at risk and infarct size (Evans Blue / TTC staining); type: in vivo; settings: for area at risk as a percentage of ventricular myocardium / infarct size as a percentage of the area at risk / infarct size as percent of ventricular myocardium (TTC staining): 60 min LAD occlusion, 24 h reperfusion, 200 ml contrast, NAC 11.3 mg/mL, n=5, mean±SD
Text: Sedation, anesthesia and instrumentation of the pigs were accomplished in accordance to the dose escalation study. All pigs received a bolus of 2000 units of heparin sulfate after obtaining femoral artery access. A guide wire (PT2, 0.014″×185 cm, Boston Scientific, Natick, Mass.) was then advanced into the left anterior descending (LAD) coronary artery followed by inflation of a balloon (Monorail Maverick, 2.5×15 mm, Boston Scientific) in its mid-portion, just distal to the second diagonal branch. Total occlusion was confirmed by contrast injections after increasing balloon pressures in 1 atm increments. Total occlusion time was 60 minutes. Throughout the experiment, the animals were monitored by continuous digital ECG recordings and guide catheter pressure recordings. Digital cineangiograpic recordings were obtained in straight anterioposterior projections. A total of 200 ml of contrast medium was administered to each animal. Approximately half of the contrast volume was used during diagnostic angiography and insertion of the guidewire into the LAD. The remaining contrast was injected after deflation of the balloon during the reperfusion period. After 20-30 minutes of reperfusion, catheter, balloon and guide wire were withdrawn. An Angio-Seal 6-French femoral artery closure device (St. Jude Medical, St. Paul, Minn.) was deployed and the Isoflurane was discontinued. After 30 minutes the ECG recording was stopped and the animals were extubated and transferred to the animal housing facility. No animal was lost during the housing period. Twenty four hours later the animals were sedated and intubated. The thoracic cavity was opened by a midline sternotomy and ligatures were placed at the site of the proximal balloon occlusion, the aortic arch branches and the descending aorta. The right carotid artery was cannulated and a plastic catheter advanced into the aortic root. […] The vessels were occluded in the following order: LAD, aortic arch branches and descending aorta. The dye was then injected at a perfusion pressure of 120 mmHg until the myocardium was stained. […] In the NAC group two animals could not be used for the myocardial infarction analysis (insufficient Evans Blue staining, unsuccessful electrical cardioversion). Evans Blue stained hearts were harvested and the atria were removed. The ventricles were sliced into one centimeter slices in a bread loaf fashion, with the first slice at the apex. At least five slices could be obtained in all hearts. The basal surfaces of the slices were sequentially imaged. Small samples of myocardium from areas of necrosis, area at risk and normal left ventricular myocardium were obtained from the apical side of the second and third slice and stored for additional analyses. […] The basal surfaces were then re-imaged. Area analysis (planimetry) was performed with the NIH-Image program (Scion Image Version 4.0.2). The size of the area at risk and infarct size for each slice was determined by multiplying the mass of the slice by the fraction of area at risk or by the fraction of area of infarction. Total infarct size and the area at risk size were expressed as a percentage of biventricular mass to account for the anterior right ventricular infarction.

myocyte nuclei = assay: Ischemia-reperfusion model: TUNEL assay for apoptosis in myocardium; type: in vivo, pig; settings: for nuclei stained positive for apoptosis (TUNEL): infarct tissue; for nuclei stained positive for apoptosis (TUNEL) / nuclei stained TUNEL positive: mean±SD; for nuclei stained TUNEL positive: non-infarcted area at risk
Text: Sedation, anesthesia and instrumentation of the pigs were accomplished in accordance to the dose escalation study. All pigs received a bolus of 2000 units of heparin sulfate after obtaining femoral artery access. A guide wire (PT2, 0.014″×185 cm, Boston Scientific, Natick, Mass.) was then advanced into the left anterior descending (LAD) coronary artery followed by inflation of a balloon (Monorail Maverick, 2.5×15 mm, Boston Scientific) in its mid-portion, just distal to the second diagonal branch. Total occlusion was confirmed by contrast injections after increasing balloon pressures in 1 atm increments. Total occlusion time was 60 minutes. Throughout the experiment, the animals were monitored by continuous digital ECG recordings and guide catheter pressure recordings. Digital cineangiograpic recordings were obtained in straight anterioposterior projections. TUNEL assays were performed on samples from […] area at risk and infarcted tissue to investigate if NAC reduces ischemia-reperfusion induced apoptosis. A total of four samples from two control animals and six samples from three NAC treated animals were analyzed. Tissue sections were deparaffinized and permeabilized with proteinase K (25 μg/ml in 100 mM Tris.HCl). An in situ apoptotic cell death detection kit (TMR red; Roche Applied Bio Sciences, Indianapolis, Ind.) based on the TUNEL assay was used to detect apoptotic cells. Sections were mounted with Vectashield mounting medium containing 4′,6-diamidino-2-phenylindole (DAPI; Vector Laboratories, Burlingame, Calif.) as a nuclear counterstain. Sections were examined with a Zeiss Axiovert 200 microscope and Zeiss LSM 510 META laser scanning confocal microscope. The percentage of apoptotic nuclei per section was calculated by counting the total number of TUNEL-staining nuclei divided by the total number of DAPI-positive nuclei in 10 randomly selected fields at ×40 magnification (14).

[5] = tested on: pig model of myocardial ischemia and reperfusion; assay: Ischemia-reperfusion model: periprocedural arrhythmias (VT, VF, DCCV); type: in vivo; settings: 200 ml contrast, NAC 11.3 mg/mL
Text: as §1, with “projections.” for “projections. In order to quantify visual differences in infarct morphology, a circumference/area index of the infarcted myocardium using TTC stained sections was calculated.”
Blood pressure, heart rate, and high-resolution ECG were continuously recorded beginning at the time of coronary occlusion and for 30 minutes following reperfusion. The occurrence of ventricular tachycardia during coronary occlusion or reperfusion (defined as more than 4 consecutive ventricular ectopic beats) and ventricular fibrillation were recorded. […] (DCCV) was provided for ventricular fibrillation and ventricular tachycardia with hemodynamic instability. No antiarrhythmic medications were used.

[6] = 250 mg NAC per 5 mL bolus, six seconds
[7] = 500 mg NAC per 5 mL bolus, six seconds
[8] = 5 ml contrast with target dose NAC 11.3 mg/mL, 6 seconds after injection
[9] = target dose NAC 11.3 mg/mL, 18 seconds after injection

Which results are given for `C[C@H](O)C(=O)Nc1c(I)c(C(=O)NC(CO)CO)c(I)c(C(=O)NC(CO)CO)c1I` [Iopamidol]?
morphologic appearance of the infarcted area [1]: homogeneous with discrete borders; blood pressure effects of control injections (contrast only, intracoronary injection): did not show such effects; QT changes ([2]; contrast injections without NAC): No significant QT changes; increase in creatinine levels ([3]; 200 ml of contrast without periprocedural hydration, 24 h): 37%; baseline creatinine level [3]: 1.32 ± 0.26 mg/dL; creatinine level [3]: 1.82 ± 0.24 mg/dL; area at risk as a percentage of ventricular myocardium [4]: 15.1±4.8%; infarct size as a percentage of the area at risk [4]: 92.4±6.3%; infarct size as percent of ventricular myocardium (TTC staining) [4]: 13.9±4.5%; nuclei stained positive for apoptosis (TUNEL) (myocyte nuclei): 35.8±5.7%; nuclei stained TUNEL positive (myocyte nuclei): 32.1±4.0%; ventricular arrhythmias during ischemia-reperfusion [5]: none of the control ischemia-reperfusion animals developed ventricular fibrillation or required DCCV

With `CC(=O)N[C@@H](CS)C(=O)O` [NAC, N-acetylcysteine] as the molecule, how does the “morphologic appearance of the infarcted area” value [1] read?
The value was “mottled appearance”.

And the “ratio of infarct circumference to infarct area” value ([1]; compared with control animals)?
The value was “greater”.

What about the “reduction of diastolic blood pressure” value [6] of the same molecule?
The value was 26%.

What about the “reduction of systolic blood pressure” value [6] of the same molecule?
The value was 14%.

And the “time to recovery of diastolic pressures” value (250 mg and 500 mg bolus)?
The value was 45 to 60 s.

And the systolic blood pressure (250 mg and 500 mg bolus, after 18 seconds)?
Its systolic blood pressure is “normalized”.

And the “reduction of diastolic blood pressure” value [7]?
Its value is 43%.

And the “reduction of systolic blood pressure” value [7]?
The value was 48%.

What about the “reduction in diastolic blood pressure” value [8] of the same molecule?
Its value is 17%.

What about the “reduction of systolic blood pressure” value [8] of the same molecule?
The value was 5%.

And the “time to complete normalization of blood pressure” value (target dose NAC 11.3 mg/mL)?
Its value is 45 to 60 s.

And the “decrease in diastolic pressure” value [9]?
Its value is “about 7%”.

What about the systolic pressure [9] of the same molecule?
The systolic pressure was “returned to pre-injection pressures”.

What about the QT interval prolongation ([2]; 250 mg NAC bolus, 18 seconds) of the same molecule?
Its QT interval prolongation is “normalized”.

What about the QT interval prolongation ([2]; 250 mg NAC bolus, immediately after injection) of the same molecule?
The QT interval prolongation was 16%.

What about the “time to complete recovery of QT interval to baseline” value ([2]; 500 mg NAC bolus) of the same molecule?
The value was 45 to 60 s.

What about the QT interval prolongation ([2]; 500 mg NAC bolus, 18 seconds) of the same molecule?
Its QT interval prolongation is 9%.

What about the QT interval prolongation ([2]; 500 mg NAC bolus, immediately after injection) of the same molecule?
The QT interval prolongation was 35%.

What about the “arrhythmias or changes in heart rate after injections of contrast containing NAC” value ([2]; healthy pigs, intracoronary bolus injections) of the same molecule?
The value was “did not cause any arrhythmias or changes in heart rate”.

What about the QT interval prolongation ([2]; target dose 11.3 mg/mL, eighteen seconds after injection) of the same molecule?
Its QT interval prolongation is “significant QT prolongation was no longer present”.

And the QT interval prolongation ([2]; target dose 11.3 mg/mL, six seconds after injection)?
The QT interval prolongation was 10%.

What about the “reduction of the rise in post procedure creatinine levels” value ([3]; NAC provided during contrast administration vs contrast-only) of the same molecule?
The value was “about 60%”.

And the baseline creatinine level [3]?
Its baseline creatinine level is 1.29 ± 0.15 mg/dL.

And the creatinine level [3]?
The creatinine level was 1.49 ± 0.06 mg/dL.

And the “area at risk as a percentage of ventricular myocardium” value [4]?
The value was 18.4±1.8%.

What about the “infarct size as a percentage of the area at risk” value [4] of the same molecule?
The value was 44.7±12.4%.

What about the “infarct size as percent of ventricular myocardium (TTC staining)” value [4] of the same molecule?
Its value is 8.2±2.3%.

And the “reduction in infarct size” value ([4]; NAC-contrast vs contrast-only)?
The value was “approximately 50%”.

And the “nuclei stained positive for apoptosis (TUNEL)” value (myocyte nuclei)?
Its value is 33.0±3.7%.

What about the “nuclei stained TUNEL positive” value (myocyte nuclei) of the same molecule?
The value was 1.6±1.6%.

And the “TUNEL positive myocyte nuclei” value (myocyte nuclei; non-ischemic myocardium (non-LAD territories), NAC treated vs control)?
The value was “without a significant difference”.

What about the “ventricular arrhythmias during ischemia-reperfusion” value [5] of the same molecule?
Its value is “developed ventricular tachycardia, fibrillation or both”.
